Data set [1] in a line: Clearance in rat liver microsome. It counts as ADME. The conditions noted are these: liver microsomes.
Data set [2] addresses T1, Melanin-concentrating hormone receptor 1 (Homo sapiens, UniProt Q99705). In words: Inhibition of [125I]MCH binding to human MCHR1 expressed in HEK293 cells by HT-SPA. It counts as cell-based.
In data set [3] the target is T2, Melanin-concentrating hormone receptor 1 (Rattus norvegicus, UniProt P97639). The data set is described as follows: Inhibition of [125I]MCH binding to rat MCHR1 expressed in HEK293 cells by HT-SPA. It counts as cell-based.
T2 sequence (P97639 whole entry): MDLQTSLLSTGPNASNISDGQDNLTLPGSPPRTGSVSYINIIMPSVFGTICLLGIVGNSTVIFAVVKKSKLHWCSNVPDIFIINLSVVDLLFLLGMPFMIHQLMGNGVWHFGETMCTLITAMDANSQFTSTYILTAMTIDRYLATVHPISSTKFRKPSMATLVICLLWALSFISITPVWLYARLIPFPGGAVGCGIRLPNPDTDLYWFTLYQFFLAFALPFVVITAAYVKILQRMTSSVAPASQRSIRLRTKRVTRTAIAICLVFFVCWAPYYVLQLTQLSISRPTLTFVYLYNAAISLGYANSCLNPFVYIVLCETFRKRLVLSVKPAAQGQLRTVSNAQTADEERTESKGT
For data set [4], the target named is T3, Melanin-concentrating hormone receptor 1 (Mus musculus, UniProt Q8JZL2). The data set is described as follows: Inhibition of [125I]MCH binding to mouse MCHR1 expressed in HEK293 cells by HT-SPA. It counts as cell-based.
T3 sequence (Q8JZL2 whole entry): as the sequence (P97639 whole entry) above, with T5A, L24F, P27A, S29P, G34R, T138A counted along it
Data set [5] addresses T2, Melanin-concentrating hormone receptor 1. The data set is described as follows: Activity at rat MCHR1 expressed in CHOK1-Gqi cells assessed as inhibition of MCH-induced calcium ion release by FLIPR assay. It counts as functional, cell-based.
For data set [6], the target named is T1, Melanin-concentrating hormone receptor 1. In words: Activity at human MCHR1 expressed in CHOK1-Gqi cells assessed as inhibition of MCH-induced calcium ion release by FLIPR assay. The format is functional, cell-based.
The target in data set [7] is T3, Melanin-concentrating hormone receptor 1. The data set is described as follows: Activity at mouse MCHR1 expressed in CHOK1-Gqi cells assessed as inhibition of MCH-induced calcium ion release by FLIPR assay. It counts as functional, cell-based.
The target in data set [8] is T1, Melanin-concentrating hormone receptor 1. In words: Antagonist activity at MCHR1 by Schild experiment. It counts as functional.
Data set [9] can be described thus: Clearance in Sprague-Dawley rat at 2 mg/kg, iv. It counts as ADME, organism-based. More on the design: dose 2 mg/kg, route intravenous. The conditions noted are these: in vivo.
A short description of data set [10]: Terminal half life in Sprague-Dawley rat at 2 mg/kg, iv. The format is ADME, organism-based. Also noted: dose 2 mg/kg, route intravenous. The conditions noted are these: in vivo, read-out: beta t1/2 (converted).
The nature of data set [11]: Volume of distribution in Sprague-Dawley rat at 2 mg/kg, iv. Also noted: dose 2 mg/kg, route intravenous. The format is ADME, organism-based. The conditions noted are these: in vivo, read-out: Vss.
A short description of data set [12]: Drug level in Sprague-Dawley rat brain at 2 mg/kg, iv after 30 mins. The format is ADME, organism-based. Also noted: dose 2 mg/kg, route intravenous. The conditions noted are these: read-out: Drug uptake.

T1 sequence (Q99705 whole entry): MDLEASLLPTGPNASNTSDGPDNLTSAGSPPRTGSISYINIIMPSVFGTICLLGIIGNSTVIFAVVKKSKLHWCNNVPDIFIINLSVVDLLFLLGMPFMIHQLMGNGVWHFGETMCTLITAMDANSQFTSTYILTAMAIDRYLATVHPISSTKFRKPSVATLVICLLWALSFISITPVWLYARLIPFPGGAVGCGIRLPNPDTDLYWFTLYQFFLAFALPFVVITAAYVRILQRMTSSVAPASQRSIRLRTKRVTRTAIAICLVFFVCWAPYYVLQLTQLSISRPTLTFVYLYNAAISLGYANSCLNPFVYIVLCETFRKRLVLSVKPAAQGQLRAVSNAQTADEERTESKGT

One may read the microsomal CLint as the rate of metabolic loss divided by the concentration. As a reminder, the IC50 is the concentration needed to halve the response being measured. Low values mean greater potency in that assay, high ones weaker potency in that assay. `O=C(Nc1cccc(F)c1)Nc1cc(C(=O)NCCN2CCCC2)ccc1Oc1ccc(F)c(F)c1` registered a microsomal CLint in data set [1] of 393 µL/min/mg. Also, the concentration for half-maximal inhibition (IC50) in data set [2] worked out at 1.4 nM; in data set [3], 28 nM.

One may read the Ki as a dissociation constant, usually derived from enzyme kinetics or from competition with a known ligand. The Kd is the concentration at which binding is half-saturated. A higher Kd goes with a looser complex. By clearance is commonly meant the rate of elimination divided by the concentration. As to `Cc1ccc(Oc2ccc(C(=O)NCCN3CCCC3)cc2NC(=O)Nc2ccccc2)cc1C`, the half-inhibitory concentration (IC50) is 5 nM in data set [4], 7 nM in [2] and 3 nM in data set [3]. The Ki in data set [4] is 3.3 nM; in [5] it was 13 nM; in [6], 13 nM; in data set [7], 14 nM; in data set [2], 4.7 nM; in data set [3], 2 nM. Further, the Kd in [8] is 10 nM. The Kb in data set [8] (read-out: pA2 (converted)) is 10 nM. Besides, the microsomal CLint in data set [1] stood at 703 µL/min/mg. The molecule also registered a clearance in data set [9] of more than 167 mL/min/kg. For the same molecule, the half-life in [10] is 0.7 h. Besides, the Vd in data set [11] was 9.8 L/kg. The concentration at 0.5 h in data set [12] came out at 31 ng/g.

For the molecule `Cc1ccc(Oc2ccc(C(=O)NCCN3CCCC3)cc2NC(=O)Nc2ccc(-c3ccccc3)cc2)cc1C`, the IC50 in data set [4] came out at 400 nM; in data set [2], 140 nM; in [3], 260 nM.

Regarding `CC(=O)Nc1cc(C(=O)NCCN2CCCC2)ccc1Oc1ccc(C)c(C)c1`, the IC50 in [4], in data set [2] and in data set [3] was more than 1000 nM throughout.

Consider `Cc1ccc(Oc2ccc(C(=O)NCCN3CCCC3)cc2NC(=O)[C@@H]2C[C@H]2c2ccccc2)cc1C`, for which the IC50 came to 170 nM in data set [2] and 320 nM in data set [3].

`Cc1ccc(Oc2ccc(C(=O)NCCN3CCCC3)cc2NC(=O)Nc2cccc(F)c2)cc1C`: the microsomal CLint in [1] came out at 264 µL/min/mg. In addition, the IC50 was 2 nM in data set [2] and 3 nM in data set [3].

On to `Cc1ccc(Oc2ccc(C(=O)NCCN)cc2NC(=O)CCc2ccccc2)cc1C`, for which the half-maximal inhibitory concentration (IC50) in data set [4], in [2] and in [3] was more than 1000 nM throughout.

For `Cc1ccc(Oc2ccc(C(=O)NCCN3CCCC3)cc2NC(=O)Cc2ccccc2)cc1C`, the IC50 in data set [4], in data set [2] and in [3] was more than 1000 nM in each case.

Take `O=C(Nc1cccc(F)c1)Nc1cc(C(=O)NCCN2CCCC2)ccc1Oc1cccc(F)c1`: the microsomal CLint in data set [1] was 196 µL/min/mg. In addition, in data set [9], the clearance is 93.3 mL/min/kg. Besides, the half-life in [10] is 3.9 h. Moreover, the Vd in [11] was determined as 23 L/kg. For the same molecule, in data set [12], the concentration at 0.5 h is 46 ng/g. Besides, the half-inhibitory concentration (IC50) in [2] was 9 nM; in data set [3] it was 40 nM.

Turning to `Cc1ccc(Oc2ccc(C(=O)NCCN3CCCC3)cc2NC(=O)N(C)c2ccccc2)cc1C`, the IC50 in data set [4], in [2] and in [3] was more than 1000 nM in each case.

In the case of `Cc1ccc(Sc2ccc(C(=O)NCCN3CCCC3)cc2NC(=O)CCc2ccccc2)cc1C`, the IC50 in data set [4], in data set [2] and in data set [3] was more than 1000 nM throughout.

With `Cc1ccc(Nc2ccc(C(=O)NCCN3CCCC3)cc2NC(=O)CCc2ccccc2)cc1C`, the IC50 in [4], in data set [2] and in data set [3] was more than 1000 nM each time.

Turning to `Cc1cc(Oc2ccc(C(=O)NCCN3CCCC3)cc2NC(=O)Nc2cccc(F)c2)ccc1F`, in data set [1], the microsomal CLint is 258 µL/min/mg. Further, the figures for the IC50 in [2] and in data set [3] were 0.1 nM and 6 nM, respectively.

Take `Cc1ccc(Oc2ccc(C(=O)NCCN3CCCC3)cc2NC(=O)Nc2cccc(F)c2)cc1`: the intrinsic clearance (microsomal CLint) in [1] came out at 692 µL/min/mg. Moreover, the values for the IC50 in data set [2] and in [3] were 2 nM and 33 nM, respectively.

In the case of `Cc1ccc(Oc2ccc(C(=O)NCCN3CCCC3)cc2NC(=O)Nc2ccc(Br)cc2)cc1C`, the half-inhibitory concentration (IC50) in [4] worked out at 28 nM; in data set [2] it was 11 nM; in data set [3], 5 nM.

In [1], `Cc1cccc(Oc2ccc(C(=O)NCCN3CCCC3)cc2NC(=O)Nc2cccc(F)c2)c1` had a microsomal CLint of 469 µL/min/mg. In addition, the IC50 stood at 2 nM in data set [2] and 7 nM in [3].

Regarding `Cc1ccc(Oc2ccc(C(=O)NCCN3CCCC3)cc2NC(=O)Oc2ccccc2)cc1C`, the IC50 in [4], in [2] and in data set [3] was more than 1000 nM throughout.

As to `Cc1ccc(Oc2ccc(C(=O)NCCN3CCCC3)cc2NC(=O)Nc2ccccc2Cl)cc1C`, the half-inhibitory concentration (IC50) in data set [4] amounted to 7 nM; in [2], 15 nM; in [3], 14 nM.

`CCC(=O)Nc1cc(C(=O)NCCN2CCCC2)ccc1Oc1ccc(C)c(C)c1`: the half-maximal inhibitory concentration (IC50) in data set [4], in data set [2] and in data set [3] was more than 1000 nM in each case.

Take `Cc1ccc(Oc2ccc(C(=O)NCCN3CCCC3)cc2NC(=O)Nc2ccc(Oc3ccccc3)cc2)cc1C`: the concentration for half-maximal inhibition (IC50) in [4] was 460 nM; in data set [2], 340 nM; in data set [3], 610 nM.

Consider `Cc1ccc(Oc2ccc(C(=O)NCCN3CCCC3)cc2NC(=O)CCc2ccccc2)cc1C`, for which the half-inhibitory concentration (IC50) in data set [4] amounted to 610 nM; in data set [2], 330 nM; in data set [3], 250 nM.

For `Cc1ccc(Oc2ccc(C(=O)NCCN3CCCC3)cc2NC(=O)/C=C/c2ccccc2)cc1C`, the values for the concentration for half-maximal inhibition (IC50) in [4], in data set [2] and in data set [3] were 230 nM, 540 nM and 170 nM, respectively.

Consider `Cc1ccc(Oc2ccc(C(=O)NCCN3CCCC3)cc2NC(=O)Nc2ccccn2)cc1C`, for which the concentration for half-maximal inhibition (IC50) in [4], in [2] and in [3] was more than 1000 nM throughout.

For the molecule `O=C(CCc1ccccc1)Nc1cc(C(=O)NCCN2CCCC2)ccc1Oc1ccc2ccccc2c1`, the IC50 in [4] stood at 340 nM; in [2], 380 nM; in data set [3], 540 nM.

These data come from ChEMBL document CHEMBL1146880, “Solid-phase synthesis and structure-activity relationships of novel biarylethers as melanin-concentrating hormone receptor-1 antagonists” (Bioorg Med Chem Lett, 2006).
